Reference: patent US10414740B2, “Glutaminase inhibitors and method of use” (Agios Pharmaceuticals, Inc., priority 2012, dated 2019)

These compounds were tested against T1, glutaminase (GAC) (Homo sapiens, UniProt O94925) (assay: glutaminase coupled endpoint assay (Example A)). Conditions: inhibition of glutaminase; IC50 tested in an assay of Example A or Example B.
T1 sequence (O94925 55-598 isoform O94925-3 limits assumed): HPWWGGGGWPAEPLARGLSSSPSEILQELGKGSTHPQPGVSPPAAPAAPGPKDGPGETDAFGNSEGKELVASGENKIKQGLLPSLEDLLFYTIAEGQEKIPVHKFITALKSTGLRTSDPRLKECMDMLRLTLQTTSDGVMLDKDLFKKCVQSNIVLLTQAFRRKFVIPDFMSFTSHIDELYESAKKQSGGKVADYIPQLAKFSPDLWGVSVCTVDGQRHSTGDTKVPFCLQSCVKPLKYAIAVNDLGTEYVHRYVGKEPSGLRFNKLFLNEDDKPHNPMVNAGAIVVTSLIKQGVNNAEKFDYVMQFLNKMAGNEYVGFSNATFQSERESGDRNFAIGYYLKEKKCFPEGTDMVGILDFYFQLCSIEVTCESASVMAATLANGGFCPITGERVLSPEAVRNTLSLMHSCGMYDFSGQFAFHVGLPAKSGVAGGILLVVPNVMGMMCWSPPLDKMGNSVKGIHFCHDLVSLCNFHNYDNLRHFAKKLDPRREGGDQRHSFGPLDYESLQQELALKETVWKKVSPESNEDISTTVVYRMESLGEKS
Format: biochemical
Procedure: In this example, the enzymatic activity of glutaminase is measured through a coupled endpoint assay. […] The glutamate produced is converted to 2-OG by a kinetic excess of glutamate dehydrogenase. […] However, a kinetic excess of the third coupling enzyme, diaphorase, recycles NAD from NADH to keep the NAD concentration constant during the timecourse of the assay. Diaphorase, also supplied in kinetic excess, oxidizes NADH produced by GDH back to NAD with the concomitant reduction of rezasurin to the highly fluorescent resorufin. […] A reduction in the signal indicates inhibition of some component of the coupled enzyme system. Prospective hits are counterscreened against GDH/diaphorase alone to remove hits to the coupling enzyme system in a second assay.
2. […] Add 1 μl a compound in 100% DMSO 2. Add 40 μl of Enzyme Mix and incubate for 60 minute at room temperature 3. Add 10 μl of Substrate Mix to start reaction 4.

IC50 | SMILES
100 to 500 nM | O=C(CCCc1ccccc1)Nc1nnc(CCCCc2nnc(NC(=O)CCCc3ccccc3)s2)s1 [Compound 82, N,N′-(5,5′-(butane-1,4-diyl)bis(1,3,4-thiadiazole-5,2-diyl))bis(4-phenylbutanamide)]
< 100 nM | O=C(Cc1ccc(F)c(F)c1)Nc1nnc(CCCCc2nnc(NC(=O)Cc3ccc(F)c(F)c3)s2)s1 [Compound 83, N,N′-(5,5′-(butane-1,4-diyl)bis(1,3,4-thiadiazole-5,2-diyl))bis(2-(3,4-difluorophenyl)acetamide)]
1000 to 10000 nM | O=C(Nc1nnc(CCCCc2nnc(NC(=O)C3(c4ccccc4)CC3)s2)s1)C1(c2ccccc2)CC1 [Compound 84]
100 to 500 nM | O=C(Nc1nnc(CCCCc2nnc(NC(=O)c3cccc4ccccc34)s2)s1)c1cccc2ccccc12 [Compound 85, N,N′-(5,5′-(butane-1,4-diyl)bis(1,3,4-thiadiazole-5,2-diyl))di-1-naphthamide]
< 100 nM | O=C(Cc1c[nH]c2ccccc12)Nc1nnc(CCCCc2nnc(NC(=O)Cc3c[nH]c4ccccc34)s2)s1 [Compound 87, N,N′-(5,5′-(butane-1,4-diyl)bis(1,3,4-thiadiazole-5,2-diyl))bis(2-(1H-indol-3-yl)acetamide)]
500 to 1000 nM | CC(C)(C(=O)Nc1nnc(CCCCc2nnc(NC(=O)C(C)(C)c3ccccc3)s2)s1)c1ccccc1 [Compound 88, N,N′-(5,5′-(butane-1,4-diyl)bis(1,3,4-thiadiazole-5,2-diyl))bis(2-methyl-2-phenylpropanamide)]
100 to 500 nM | O=C(CC1NC(=O)NC1=O)Nc1nnc(CCCCc2nnc(NC(=O)CC3NC(=O)NC3=O)s2)s1 (stereo not drawn) [Compound 89, N,N′-(5,5′-(butane-1,4-diyl)bis(1,3,4-thiadiazole-5,2-diyl))bis(2-(2,5-dioxoimidazolidin-4-yl)acetamide)]
100 to 500 nM | O=C(Nc1nnc(CCCCc2nnc(NC(=O)C3CCCCC3)s2)s1)C1CCCCC1 [Compound 90, N,N′-(5,5′-(butane-1,4-diyl)bis(1,3,4-thiadiazole-5,2-diyl))dicyclohexanecarboxamide]
100 to 500 nM | O=C(CCc1ccccc1Cl)Nc1nnc(CCCCc2nnc(NC(=O)CCc3ccccc3Cl)s2)s1 [Compound 91, N,N′-(5,5′-(butane-1,4-diyl)bis(1,3,4-thiadiazole-5,2-diyl))bis(3-(2-chlorophenyl)propanamide)]
1000 to 10000 nM | O=C(Cc1cccc(C(F)(F)F)c1F)Nc1nnc(CCCCc2nnc(NC(=O)Cc3cccc(C(F)(F)F)c3F)s2)s1 [Compound 92]
100 to 500 nM | O=C(CC1OC(=O)c2ccccc21)Nc1nnc(CCCCc2nnc(NC(=O)CC3OC(=O)c4ccccc43)s2)s1 (stereo not drawn) [Compound 93, N,N′-(5,5′-(butane-1,4-diyl)bis(1,3,4-thiadiazole-5,2-diyl))bis(2-(3-oxo-1,3-dihydroisobenzofuran-1-yl)acetamide)]
500 to 1000 nM | CC(=O)Nc1nnc(CCCCc2nnc(NC(C)=O)s2)s1 [Compound 94, N,N′-(5,5′-(butane-1,4-diyl)bis(1,3,4-thiadiazole-5,2-diyl))diacetamide]
500 to 1000 nM | O=C(Nc1nnc(CCCCc2nnc(NC(=O)C3CCCC3)s2)s1)C1CCCC1 [Compound 95, N,N′-(5,5′-(butane-1,4-diyl)bis(1,3,4-thiadiazole-5,2-diyl))dicyclopentanecarboxamide]
1000 to 10000 nM | CC(C)(C)CC(=O)Nc1nnc(CCCCc2nnc(NC(=O)CC(C)(C)C)s2)s1 [Compound 96]
1000 to 10000 nM | CN(C(=O)Cc1ccccc1)c1nnc(CCCCc2nnc(N(C)C(=O)Cc3ccccc3)s2)s1 [Compound 97]

The remaining lines, values behind:

SMILES | IC50
COc1ccc(CC(=O)Nc2nnc(CCCCc3nnc(NC(=O)Cc4ccc(OC)c(OC)c4)s3)s2)cc1OC [Compound 63, N,N′-(5,5′-(butane-1,4-diyl)bis(1,3,4-thiadiazole-5,2-diyl))bis(2-(3,4-dimethoxyphenyl)acetamide)] | < 100 nM
O=C(Nc1nnc(CCCCc2nnc(NC(=O)C3CC=CC3)s2)s1)C1CC=CC1 [Compound 64, N,N′-(5,5′-(butane-1,4-diyl)bis(1,3,4-thiadiazole-5,2-diyl))dicyclopent-3-enecarboxamide] | 100 to 500 nM
Cc1ccc(OCC(=O)Nc2nnc(CCCCc3nnc(NC(=O)COc4ccc(C)cc4C)s3)s2)c(C)c1 [Compound 65] | 1000 to 10000 nM
CCOC(=O)CCC(=O)Nc1nnc(CCCCc2nnc(NC(=O)CCC(=O)OCC)s2)s1 [Compound 66, Diethyl 4,4′-(5,5′-(butane-1,4-diyl)bis(1,3,4-thiadiazole-5,2-diyl))bis(azanediyl)bis(4-oxobutanoate)] | 100 to 500 nM
Cc1ccc(C)c(OCC(=O)Nc2nnc(CCCCc3nnc(NC(=O)COc4cc(C)ccc4C)s3)s2)c1 [Compound 67] | 1000 to 10000 nM
CC(=O)NCCC(=O)Nc1nnc(CCCCc2nnc(NC(=O)CCNC(C)=O)s2)s1 [Compound 68] | 1000 to 10000 nM
CC(=O)NCCCC(=O)Nc1nnc(CCCCc2nnc(NC(=O)CCCNC(C)=O)s2)s1 [Compound 70] | 1000 to 10000 nM
O=C(Cc1nn[nH]n1)Nc1nnc(CCCCc2nnc(NC(=O)Cc3nn[nH]n3)s2)s1 [Compound 71, N,N′-(5,5′-(butane-1,4-diyl)bis(1,3,4-thiadiazole-5,2-diyl))bis(2-(1H-tetrazol-5-yl)acetamide)] | 100 to 500 nM
CC(=O)CCCCC(=O)Nc1nnc(CCCCc2nnc(NC(=O)CCCCC(C)=O)s2)s1 [Compound 72, N,N′-(5,5′-(butane-1,4-diyl)bis(1,3,4-thiadiazole-5,2-diyl))bis(6-oxoheptanamide)] | 100 to 500 nM
O=C(CCc1nnc(NC(=O)Cc2ccccn2)s1)CCc1nnc(NC(=O)Cc2ccccn2)s1 [Compound 73] | 500 to 1000 nM
COc1ccccc1OCC(=O)Nc1nnc(CCCCc2nnc(NC(=O)COc3ccccc3OC)s2)s1 [Compound 74] | 100 to 500 nM
COc1ccc(CCCC(=O)Nc2nnc(CCCCc3nnc(NC(=O)CCCc4ccc(OC)cc4)s3)s2)cc1 [Compound 75, N,N′-(5,5′-(butane-1,4-diyl)bis(1,3,4-thiadiazole-5,2-diyl))bis(4-(4-methoxyphenyl)butanamide)] | 100 to 500 nM
CCOC(=O)CCCC(=O)Nc1nnc(CCCCc2nnc(NC(=O)CCCC(=O)OCC)s2)s1 [Compound 76, Diethyl 5,5′-(5,5′-(butane-1,4-diyl)bis(1,3,4-thiadiazole-5,2-diyl))bis(azanediyl)bis(5-oxopentanoate)] | 100 to 500 nM
CNC(=O)c1nnc(CCSCCc2nnc(C(=O)NC)s2)s1 [Compound 77] | 1000 to 10000 nM
O=C(Cc1ccc(Cl)nc1)Nc1nnc(CCCCc2nnc(NC(=O)Cc3ccc(Cl)nc3)s2)s1 [Compound 78, N,N′-(5,5′-(butane-1,4-diyl)bis(1,3,4-thiadiazole-5,2-diyl))bis(2-(6-chloropyridin-3-yl)acetamide)] | 500 to 1000 nM
CC(C)c1ccc(OCC(=O)Nc2nnc(CCCCc3nnc(NC(=O)COc4ccc(C(C)C)cc4)s3)s2)cc1 [Compound 79] | 1000 to 10000 nM
O=C(CCCC1CCCCC1)Nc1nnc(CCCCc2nnc(NC(=O)CCCC3CCCCC3)s2)s1 [Compound 80, N,N′-(5,5′-(butane-1,4-diyl)bis(1,3,4-thiadiazole-5,2-diyl))bis(4-cyclohexylbutanamide)] | 500 to 1000 nM
O=C(C/C=C/c1ccccc1)Nc1nnc(CCCCc2nnc(NC(=O)C/C=C/c3ccccc3)s2)s1 [Compound 81, (3E,3′E)-N,N′-(5,5′-(butane-1,4-diyl)bis(1,3,4-thiadiazole-5,2-diyl))bis(4-phenylbut-3-enamide)] | 100 to 500 nM
